# Test results from patent US10730889B2, “Amido spirocyclic amide and sulfonamide derivatives” (Forma TM, LLC, priority 2012, dated 2020).
# Test system: A2780 cells
# Experiment: In-vitro cell proliferation assay (SRB, 72 hours)
# Type: cell-based
# Conditions: A2780 cells, 72 hours, SRB; read-out: Cell Proliferation (IC50)
row,IC50 [nM],Molecule
1,7.03,"N-[[6-(2,2- dimethylcyclopropanecarbonyl)- 6-azaspiro[2.5]octan-2- yl]methyl]furo[2,3-c]pyndine-2- carboxamide [Example 373]"

# Same assay, conditions: Homo sapiens, A2780, 72 h, A2780 cells, 72 hours, SRB; read-out: Cell Proliferation (IC50)
row,IC50 [nM],Molecule
1,2000,"CC(C)(C)OC(=O)N1CCC2(CC1)CC2CNC(=O)NCc1ccc2nccn2c1 (stereo not shown) [Example 392, tert-butyl 2-[(imidazo[1,2-a]pyridin-6-ylmethylcarbamoylamino)methyl]-6-azaspiro[2.5]octane-6-carboxylate]"
2,63.5,"O=C(NCC1CC12CCN(C(=O)c1cnco1)CC2)c1cc2ccncc2o1 (stereo not shown) [Example 336, N-[[6-(oxazole-5-carbonyl)-6-azaspiro[2.5]octan-2-yl]methyl]furo[2,3-c]pyridine-2-carboxamide]"
3,193,"Cc1cc(C)n(CC(=O)N2CCC3(CC2)CC3CNC(=O)c2cc3ccncc3o2)n1 (stereo not shown) [Example 67, N-[[6-[2-(3,5-dimethylpyrazol-1-yl)acetyl]-6-azaspiro[2.5]octan-2-yl]methyl]furo[2,3-c]pyridine-2-carboxamidc]"
4,931,"O=C(NCC1CC12CCN(C(=O)CCN1CCOCC1)CC2)c1cc2ccncc2o1 (stereo not shown) [Example 65, N-[[6-(3-morpholinopropanoyl)-6-azaspiro[2.5]octan-2-yl]methyl]furo[2,3-c]pyridine-2-carboxamide]"
5,23.1,"O=C(NCC1CC12CCN(C(=O)c1cnoc1)CC2)c1cc2ccncc2o1 (stereo not shown) [Example 337, N-[[6-(isoxazole-4-carbonyl)-6-azaspiro[2.5]octan-2-yl]methyl]furo[2,3-c]pyridine-2-carboxamide]"
6,2000,"Cc1ccn(CC(C)C(=O)N2CCC3(CC2)CC3CNC(=O)c2cc3ccncc3o2)n1 (stereo not shown) [Example 140, N-[[6-[2-methyl-3-(3-methylpyrazol-1-yl)propanoyl]-6-azaspiro[2.5]octan-2-yl]methyl]furo[2,3-c]pyridine-2-carboxamide]"
7,2460,"O=C(NCC1CC12CCN(C(=O)Nc1ccccc1)CC2)c1cc2ccncc2o1 (stereo not shown) [Example 187, N-[[6-(phenylcarbamoyl)-6-azaspiro[2.5]octan-2-yl]methyl]furo[2,3-c]pyridine-2-carboxamide]"
8,2000,"NC(=O)N1CCC(C(=O)N2CCC3(CC2)CC3CNC(=O)c2cc3ccncc3o2)CC1 (stereo not shown) [Example 78, N-[[6-(1-carbamoylpiperidme-4-carbonyl)-6-azaspiro[2.5]octan-2-y]methyl]furo(2,3-c]pyridine-2-carboxamide]"
9,2000,"CC(C)c1cc(C(=O)N2CCC3(CC2)CC3CNC(=O)c2cc3ccncc3o2)n[nH]1 (stereo not shown) [Example 323, N-[[6-(5-isopropyl-1H-pyrazole-3-carbonyl)-6-azaspiro[2.5]octan-2-yl]methyl]furo[2,3-c]pyridine-2-carboxamide]"
10,2000,"CC(C)c1oncc1C(=O)N1CCC2(CC1)CC2CNC(=O)c1cc2ccncc2o1 (stereo not shown) [Example 318, N-[[6-(5-isopropylisoxazole-4-carbonyl)-6-azaspiro[2.5]octan-2-yl]methyl]furo[2,3-c]pyridine-2-carboxamide]"
11,2000,CC(C)(C)OC(=O)N1CCC2(CC1)CC2CNC(=O)N1Cc2cnc(N)cc2C1 (stereo not shown) [Example 406]
12,2000,"O=C(NCC1CC12CCN(C(=O)NCc1ccc(Cl)cc1Cl)CC2)c1cc2ccncc2o1 (stereo not shown) [Example 173, N-[(6-[(2,4-dichlorophenyl)methylcarbamoyl]-6-azaspiro[2.5]octan-2-yl]methyl]furo[2,3-c]pyridine-2-carboxamide]"
13,74.4,"O=C(NCC1CC12CCN(C(=O)CC1CCN(c3ncccn3)CC1)CC2)c1cc2ccncc2o1 (stereo not shown) [Example 147, N-[[6-[2-(1-pyrimidin-2-yl-4-piperidyl)acetyl]-6-azaspiro[2.5]octan-2-yl]methyl]furo[2,3-c]pyridine-2-carboxamide]"
14,6.83,Cn1nnc(-c2ccc(C(=O)N3CCC4(CC3)CC4CNC(=O)c3cc4ccncc4o3)cc2)n1 (stereo not shown) [Example 280]
15,109,"CC(C)c1n[nH]cc1C(=O)N1CCC2(CC1)CC2CNC(=O)c1cc2ccncc2o1 (stereo not shown) [Example 324, N-[[6-(3-isopropyl-1H-pyrazole-4-carbonyl)-6-azaspiro[2.5]octan-2-yl]methyl]furo[2,3-c]pyridine-2-carboxamide]"
16,16,O=C(NCC1CC12CCN(C(=O)c1cnc3ccccc3n1)CC2)c1cc2ccncc2o1 (stereo not shown) [Example 269]
17,888,"CC(C)(O)CCC(=O)N1CCC2(CC1)CC2CNC(=O)c1cc2cnccc2[nH]1 (stereo not shown) [Example 397, N-[[6-(4-hydroxy-4-methyl-pentanoyl)-6-azaspiro[2.5]octan-2-yl]methyl]-1H-pyrrolo[3,2-c]pyridine-2-carboxamide]"

row,IC50 [nM],Molecule
1,14.5,"Nc1ccc(CC(=O)N2CCC3(CC2)CC3CNC(=O)N2Cc3ccncc3C2)cn1 (stereo not shown) [Example 394, N-[[6-[2-(6-Amino-3-pyridyl)acetyl]-6-azaspiro[2.5]octan-2-yl]methyl]-1,3-dihydropyrrolo[3,4-c]pyridine-2-carboxamide]"
2,50.9,"C=C/N=C\C1=CCN(C(=O)NCC2CC23CCN(C(=O)CCC(C)(C)O)CC3)C1 (stereo not shown) [Example 360, N-[[6-(4-hydroxy-4-methyl-pentanoyl)-6-azaspiro[2.5]octan-2-yl]methyl]-1,3-dihydropyrroIo[3,4-c]pyridine-2-carboxamide]"
3,47.3,"O=C(NCC1CC12CCN(C(=O)c1cccc3[nH]cnc13)CC2)c1cc2ccncc2o1 (stereo not shown) [Example 236, N-[[6-(1H-benzimidazole-4-carbonyl)-6-azaspiro[2.5]octan-2-yl]methyl]furo[2,3-c]pyridine-2-carboxamide]"
4,6.01,"CN1CCN(Cc2ccc(C(=O)N3CCC4(CC3)CC4CNC(=O)N3Cc4ccncc4C3)cc2)CC1 (stereo not shown) [Example 346, N-[[6-[4-[(4-methylpiperazin-1-yl)methyl]benzoyl]-6-azaspiro[2.5]octan-2-yl]methyl]-1,3-dihydropyrrolo[3,4-c]pyridine-2-carboxamide]"
5,2000,"O=C(NCC1CC12CCN(C(=O)CN1CCCCC1)CC2)c1cc2ccncc2o1 (stereo not shown) [Example 35, N-[[6-[2-(1-piperidyl)acetyl]-6-azaspiro[2.5]octan-2-yl]methyl]furo[2,3-c]pyridine-2-carboxamide]"
6,755,"O=C(NCC1CC12CCN(C(=O)Cc1cccnc1)CC2)c1cc2cnccc2[nH]1 (stereo not shown) [Example 277, N-[[6-[2-(3-pyridyl)acctyl]-6-azaspiro[2.5]octan-2-yl]methyl]-1H-pyrrolo[3,2-c]pyridine-2-carboxamide]"
7,4.39,"O=C(NCC1CC12CCN(C(=O)c1ccc(CN3CCCC3)cc1)CC2)c1cc2ccncc2o1 (stereo not shown) [Example 248, N-[[6-[4-(pyrrolidin-1-ylmethyl)benzoyl]-6-azaspiro[2.5]octan-2-yl]methyl]furo[2,3-c]pyridine-2-carboxamide]"
8,12.1,"Cc1cccc2nc(C(=O)N3CCC4(CC3)CC4CNC(=O)c3cc4ccncc4o3)cn12 (stereo not shown) [Example 311, N-[[6-(5-methylimidazo[1,2-a]pyridine-2-carbonyl)-6-azaspiro[2.5]octan-2-yl]methyl]furo[2,3-c]pyridine-2-carboxamide]"
9,1560,"Cc1ccnc(C(=O)N2CCC3(CC2)CC3CNC(=O)c2cc3ccncc3o2)c1 (stereo not shown) [Example 235, N-[[6-(4-methylpyridine-2-carbonyl)-6-azaspiro[2.5]octan-2-yl]methyl]furo[2,3-c]pyridine-2-carboxamide]"
10,344,"O=C(NCC1CC12CCN(C(=O)c1cccc(Cn3ccnc3)c1)CC2)c1cc2ccncc2o1 (stereo not shown) [Example 252, N-[[6-[3-(imidazol-1-ylmethyl)benzoyl]-6-azaspiro[2.5]octan-2-yl]methyl]furo[2,3-c]pyridine-2-carboxamide]"
11,2000,"Cc1cccc(CNC(=O)N2CCC3(CC2)CC3CNC(=O)c2cc3ccncc3o2)c1 (stereo not shown) [Example 158, N-[[6-(m-tolylmethylcarbamoyl)-6-azaspiro[2.5]octan-2-yl]methyl]furo[2,3-c]pyridine-2-carboxamide]"
12,80.8,"CN(C)Cc1ccc(C(=O)N2CCC3(CC2)CC3CNC(=O)c2cc3cnccc3[nH]2)cc1 (stereo not shown) [Example 345, N-[[6-[4-[(dimethylamino)methyl]benzoyl]-6-azaspiro[2.5]octan-2-yl]methyl]-1H-pyrrolo[3,2-c]pyridine-2-carboxamide]"
13,10.9,"CCc1cc(C(=O)N2CCC3(CC2)CC3CNC(=O)c2cc3ccncc3o2)n(C)n1 (stereo not shown) [Example 326, N-[[6-(5-ethyl-2-methyl-pyrazole-3-carbonyl)-6-azaspiro[2.5]octan-2-yl]methyl]furo[2,3-c]pyridine-2-carboxamide]"
14,72,"CN1CCN(Cc2cccc(C(=O)N3CCC4(CC3)CC4CNC(=O)c3cc4cnccc4[nH]3)c2)CC1 (stereo not shown) [Example 344, N-[[6-[3-[(4-methylpiperazin-1-yl)methyl]benzoyl]-6-azaspiro[2.5]octan-2-yl]methyl]-1H-pyrrolo[3,2-c]pyridine-2-carboxamide]"
15,549,"O=C(NCC1CC12CCN(C(=O)c1cn3cccnc3n1)CC2)c1cc2ccncc2o1 (stereo not shown) [Example 320, N-[[6-(imidazo[1,2-a]pyrimidine-2-carbonyl)-6-azaspiro[2.5]octan-2-yl]methyl]furo[2,3-c]pyridine-2-carboxamide]"
16,2000,"O=C(NCC1CC12CCN(C(=O)CC1CC1)CC2)c1cc2ccncc2o1 (stereo not shown) [Example 32, N-[[6-(2-cyclopropylacetyl)-6-azaspiro[2.5]octan-2-yl]methyl]furo[2,3-c]pyridine-2-carboxamide]"
17,643,"O=C(NCC1CC12CCN(C(=O)CC1CCCO1)CC2)c1cc2ccncc2o1 (stereo not shown) [Example 37, N-[[6-(2-tetrahydrofuran-2-ylacetyl)-6-azasptro[2.5]octan-2-yl]methyl]furo[2,3-c]pyridine-2-carboxamide]"

# Same assay, conditions: Homo sapiens; A2780 cells, 72 hours, SRB; read-out: Cell Proliferation (IC50)
row,Molecule,IC50 [nM]
1,"O=C(Cc1ncccn1)N1CCC2(CC1)CC2CNC(=O)N1Cc2ccncc2C1 (stereo not shown) [Example 286, N-[[6-(2-pyrimidin-2-ylacetyl)-6-azaspiro[2.5]octan-2-yl]methyl]-1,3-dihydropyrrolo[3,4-c]pyridine-2-carboxamide]",27
2,"N#Cc1ccc(CC(=O)N2CCC3(CC2)CC3CNC(=O)N2Cc3ccncc3C2)cc1 (stereo not shown) [Example 207, N-[[6-[2-(4-cyanophenyl)acetyl]-6-azaspiro[2.5]octan-2-yl]methyl]-1,3-dihydropyrrolo[3,4-c]pyridine-2-carboxamide]",136
